Measurements taken from ChEMBL document CHEMBL3046865, “Antibacterial activity of alkyl gallates and related compounds against Ralstonia solanacearum” (2011).
Active and inactive are the calls of the source. The calls are words filed in the database; no cut-off is given here.

Tests used:
[1] = test system: Ralstonia solanacearum
[2] = test system: Ralstonia solanacearum; remark: listed apart in the source
[3] = test system: Ralstonia solanacearum; assay type: functional
[4] = test system: Ralstonia solanacearum; assay type: functional; remark: listed apart in the source
[5] = test system: Ralstonia solanacearum; assay type: functional; remark: listed apart in the source
[6] = test system: Ralstonia solanacearum; assay type: functional; remark: listed apart in the source

Row | Structure (SMILES) | DIZ [1] | DIZ [2] | diameter of the inhibition zone (DIZ) [3] [mm] | further results
1 | COc1ccc(/C=C/C(=O)O)cc1O | inactive | inactive | – | –
2 | O=C(O)c1ccc(O)cc1 [PARABEN] | – | inactive | 13 | –
3 | O=C(O)c1cc(O)c(O)c(O)c1 [GALLIC ACID] | – | inactive | 12 | –
4 | COc1cc(/C=C/C(=O)O)ccc1O | inactive | inactive | – | –
5 | CCCCCCCCCCCCOC(=O)c1cc(O)c(O)c(O)c1 | inactive | inactive | – | –
6 | COC(=O)c1cccc(O)c1O [METHYL 2,3-DIHYDROXYBENZOATE] | – | – | 58 | diameter of the inhibition zone (DIZ) [4]: 13 mm
7 | COC(=O)c1ccc(O)cc1O [METHYL 2,4-DIHYDROXYBENZOATE] | – | inactive | 32 | –
8 | CCOC(=O)c1ccc(O)cc1 [ETHYLPARABEN] | – | inactive | 29 | –
9 | O=C(/C=C/c1ccc(O)c(O)c1)O[C@@H]1C[C@](O)(C(=O)O)C[C@@H](O)[C@H]1O | inactive | inactive | – | –
10 | O=C(O)c1cccc(O)c1 [3-HYDROXYBENZOIC ACID] | – | inactive | 14 | –
11 | COC(=O)c1ccccc1O | inactive | inactive | – | –
12 | COC(=O)c1ccc(O)cc1 [METHYLPARABEN] | – | inactive | 36 | –
13 | O=C(O)/C=C/c1ccccc1O [O-COUMARIC ACID] | – | inactive | 16 | –
14 | O=c1c(O)c(-c2ccc(O)c(O)c2)oc2cc(O)cc(O)c12 | inactive | inactive | – | –
15 | COC(=O)c1ccc(OC)cc1O | – | inactive | 11 | –
16 | O=C(O)/C=C/c1ccc(O)cc1 [COUMARIC ACID] | – | inactive | 11 | –
17 | O=c1oc2c(O)c(O)cc3c(=O)oc4c(O)c(O)cc1c4c23 | inactive | inactive | – | –

Row | Structure (SMILES) | DIZ [1] | DIZ [2] | diameter of the inhibition zone (DIZ) [3] [mm] | further results
18 | CCCOC(=O)c1ccc(O)cc1 [PROPYLPARABEN] | – | inactive | 17 | –
19 | CCOC(=O)c1cc(O)c(O)c(O)c1 [ETHYLGALLATE] | – | – | 42 | diameter of the inhibition zone (DIZ) [4]: 18 mm
20 | CCCCCCCCCOC(=O)c1ccc(O)cc1 | inactive | inactive | – | –
21 | COC(=O)c1cc(O)ccc1O [METHYL 2,5-DIHYDROXYBENZOATE] | – | inactive | 43 | –
22 | CCCCCCCCOC(=O)c1cc(O)c(O)c(O)c1 [OCTYL_GALLATE] | – | – | 12 | diameter of the inhibition zone (DIZ) [4]: 11 mm
23 | COc1cc(/C=C/C(=O)O)cc(OC)c1O | inactive | inactive | – | –
24 | COC(=O)c1cccc(O)c1 [METHYL 3-HYDROXYBENZOATE] | – | inactive | 23 | –
25 | COC(=O)c1cc(O)cc(O)c1 [METHYL 3,5-DIHYDROXYBENZOATE] | – | inactive | 18 | –
26 | COC(=O)c1ccc(O)c(OC)c1 [METHYL VANILLATE] | – | inactive | 15 | –
27 | CCCOC(=O)c1cc(O)c(O)c(O)c1 [PROPYL GALLATE] | – | – | 31 | diameter of the inhibition zone (DIZ) [4]: 11 mm
28 | O=C(O)/C=C/c1ccc(O)c(O)c1 | inactive | inactive | – | –
29 | O=C(O)c1ccccc1O [SALICYLIC ACID] | – | – | 16 | –
30 | COC(=O)c1cc(O)c(O)c(O)c1 [GALLIC ACID METHYL ESTER] | – | – | 54 | diameter of the inhibition zone (DIZ) [4]: 22 mm; diameter of the inhibition zone (DIZ) [5]: 11 mm; diameter of the inhibition zone (DIZ) [6]: 18 mm
31 | C[C@@H]1O[C@@H](OC[C@H]2O[C@@H](Oc3c(-c4ccc(O)c(O)c4)oc4cc(O)cc(O)c4c3=O)[C@H](O)[C@@H](O)[C@@H]2O)[C@H](O)[C@H](O)[C@H]1O | inactive | inactive | – | –
32 | COC(=O)c1cc(OC)cc(OC)c1 | inactive | inactive | – | –
33 | COC(=O)c1ccc(O)c(O)c1 [METHYL PROTOCATECHUATE] | – | – | 37 | diameter of the inhibition zone (DIZ) [4]: 11 mm
34 | O=C(O)/C=C/c1ccccc1 [CINNAMIC ACID] | – | inactive | 13 | –
